Patent publication US20250255981A1, “IMMUNOMODULATORY ANTIBODY-DRUG CONJUGATES” (Seagen Inc., priority 2022, published 2025)
≈ marks a conversion by molar mass, not a printed value.

test system: THP1-Dual™ cells (IRF-Lucia luciferase reporter); test: THP1-Dual™ cell reporter assay; type: cell-based, human; details: ADC: drug linker conjugated to targeted mAb, 48 h; some values average of multiple experiments
Experimental: Potency of compounds and ADCs was evaluated using the THP1-Dual™ cells (Invivogen PN: thpd-nfis [also referred to as THP1 dual reporter cells]), which contain an IRF-Lucia luciferase reporter. Cells were cultured in RPMI-1640 (Gibco) with 10% heat-inactivated fetal bovine serum, Pen-Strep (100 U/mL-100 […], Gibco), HEPES (10 mM, Gibco)), sodium pyruvate (1 mM, Gibco), MEM non-essential amino acids (1×, Gibco), GlutaMAX (1×, Gibco), and beta-mercaptoethanol (55 μM, Gibco). Cells were plated in a 96-well flat bottom tissue culture-treated clear polystyrene plate (Corning Costar #3596) at ˜100,000 cells per well in 200 μL with the indicated concentration of the compound or ADC. The supernatant was harvested at 24 hours (compounds) or 48 hours (ADC) post plating for the reporter assay, or as indicated. To measure Lucia reporter signal, 10 µL of the supernatant was combined with 40 µL of QUANTI-Luc™ Luminescence assay reagent (Invivogen PN: rep-qlc1) in a 96-well clear flat bottom tissue culture-treated black polystyrene plate (Corning Costar #3603) and read on a Perkin Elmer Envision plate reader.

| SMILES | EC50, Lucia reporter signal |
| --- | --- |
| CCn1nc(C)cc1C(=O)Nc1nc2cc(C(N)=O)cc(OC)c2n1C/C=C/Cn1c(NC(=O)c2cccnn2)nc2cc(C(N)=O)cc(OCCCN(C)C(=O)CCN3C(=O)C=CC3=O)c21 [compound 96] | >10,000 ng/mL |
| CCn1nc(C)cc1C(=O)Nc1nc2cc(C(=O)O)cc(OC)c2n1C/C=C/Cn1c(NC(=O)c2cc(C)nn2CC)nc2cc(C(=O)O)cc(OCCCN(C)C(=O)CCN3C(=O)C=CC3=O)c21 [compound 68, (E)-1-(4-(5-carboxy-2-(1-ethyl-3-methyl-1H-pyrazole-5-carboxamido)-7-methoxy-1H-benzo[d]imidazol-1-yl)but-2-en-1-yl)-7-(3-(3-(2,5-dioxo-2,5-dihydro-1H-pyrrol-1-yl)-N-methylpropanamido)propoxy)-2-(1-ethyl-3-methyl-1H-pyrazole-5-carboxamido)-1H-benzo[d]imidazole-5-carboxylic acid] | >10,000 ng/mL |
| CCn1nc(C)cc1C(=O)Nc1nc2cc(C(N)=O)cc(OC)c2n1C/C=C/Cn1c(NC(=O)c2cc(C)nn2CC)nc2cc(C(N)=O)cc(OCCCN(C)C(=O)[C@H](CCC(=O)OC)NC(=O)CCN3C(=O)C=CC3=O)c21 [compound 123] | 1.6 ng/mL (≈ 1.47 nM) |
| CCn1nc(C)cc1C(=O)Nc1nc2cc(S(N)(=O)=O)ccc2n1C/C=C/Cn1c(NC(=O)c2cc(C)nn2C)nc2cc(C(N)=O)cc(OCCCOC3CN(C(=O)CCN4C(=O)C=CC4=O)C3)c21 [compound 147, (E)-2-(1,3-dimethyl-1H-pyrazole-5-carboxamido)-7-(3-((1-(3-(2,5-dioxo-2,5-dihydro-1H-pyrrol-1-yl)propanoyl)azetidin-3-yl)oxy)propoxy)-1-(4-(2-(1-ethyl-3-methyl-1H-pyrazole-5-carboxamido)-5-sulfamoyl-1H-benzo[d]imidazol-1-yl)but-2-en-1-yl)-1H-benzo[d]imidazole-5-carboxamide] | >10,000 ng/mL |
| CCn1nc(C)cc1C(=O)Nc1nc2cc(C(N)=O)cc(OC)c2n1C/C=C/Cn1c(NC(=O)c2cc(C(F)(F)F)nn2CC)nc2cc(C(N)=O)cc(OCCCN(C)C(=O)CCN3C(=O)C=CC3=O)c21 [compound 109] | >10,000 ng/mL |
| CCn1nc(C)cc1C(=O)Nc1nc2cc(C(N)=O)cc(OC)c2n1C/C=C/Cn1c(NC(=O)c2ccnnc2)nc2cc(C(N)=O)cc(OCCCN(C)C(=O)CCN3C(=O)C=CC3=O)c21 [compound 98] | >10,000 ng/mL |
| CCn1nc(C)cc1C(=O)Nc1nc2cc(C(N)=O)cc(OC)c2n1C/C=C/Cn1c(NC(=O)c2cc(C)nn2CC)nc2cc(C(N)=O)cc(OCCCN(C)C(=O)[C@@H](NC(=O)CCN3C(=O)C=CC3=O)[C@@H](C)OC)c21 [compound 125] | 1.4 ng/mL (≈ 1.32 nM) |
| CCn1nc(C)cc1C(=O)Nc1nc2cc(C(N)=O)cc(OC)c2n1C/C=C/Cn1c(NC(=O)c2cc(C)sn2)nc2cc(C(N)=O)cc(OCCCN(C)C(=O)CCN3C(=O)C=CC3=O)c21 [compound 107] | >10,000 ng/mL |
| CCn1nc(C)cc1C(=O)Nc1nc2cc(C(N)=O)cc(OC)c2n1C/C=C/Cn1c(NC(=O)c2cc(C)nn2CC)nc2cc(C(N)=O)cc(OCCC[N+](C)(C)Cc3ccc(O[C@@H]4O[C@H](C(=O)O)[C@@H](O)[C@H](O)[C@H]4O)cc3NC(=O)CCNC(=O)CCN3C(=O)C=CC3=O)c21.O=C([O-])C(F)(F)F [compound 134] | 10.3 ng/mL |
| CCn1nc(C)cc1C(=O)Nc1nc2cc(C(N)=O)cc(OC)c2n1C/C=C/Cn1c(NC(=O)c2cc(C)nn2CC)nc2cc(C(N)=O)cc(OCCCN(C)C(=O)[C@H](CO)NC(=O)CCN3C(=O)C=CC3=O)c21 [Compound 24, (S,E)-1-(4-(5-carbamoyl-2-(1-ethyl-3-methyl-1H-pyrazole-5-carboxamido)-7-methoxy-1H-benzo[d]imidazol-1-yl)but-2-en-1-yl)-7-(3-(2-(3-(2,5-dioxo-2,5-dihydro-1H-pyrrol-1-yl)propanamido)-3-hydroxy-N-methylpropanamido)propoxy)-2-(1-ethyl-3-methyl-1H-pyrazole-5-carboxamido)-1H-benzo[d]imidazole-5-carboxamide] | 2.1 ng/mL (≈ 2.03 nM) |
| CCn1nc(C)cc1C(=O)Nc1nc2cc(C(=O)OC)cc(OC)c2n1C/C=C/Cn1c(NC(=O)c2cc(C)nn2CC)nc2cc(C(=O)OC)cc(OCCCN(C)C(=O)CCN3C(=O)C=CC3=O)c21 [compound 66, methyl (E)-7-(3-(3-(2,5-dioxo-2,5-dihydro-1H-pyrrol-1-yl)-N-methylpropanamido)propoxy)-2-(1-ethyl-3-methyl-1H-pyrazole-5-carboxamido)-1-(4-(2-(1-ethyl-3-methyl-1H-pyrazole-5-carboxamido)-7-methoxy-5-(methoxycarbonyl)-1H-benzo[d]imidazol-1-yl)but-2-en-1-yl)-1H-benzo[d]imidazole-5-carboxylate] | >10,000 ng/mL |
| CCn1nc(C)cc1C(=O)Nc1nc2cc(S(N)(=O)=O)ccc2n1C/C=C/Cn1c(NC(=O)c2cc(C)nn2C)nc2cc(C(N)=O)cc(OCCCN(C)C(=O)CCN3C(=O)C=CC3=O)c21 [compound 148, (E)-2-(1,3-dimethyl-1H-pyrazole-5-carboxamido)-7-(3-(3-(2,5-dioxo-2,5-dihydro-1H-pyrrol-1-yl)-N-methylpropanamido)propoxy)-1-(4-(2-(1-ethyl-3-methyl-1H-pyrazole-5-carboxamido)-5-sulfamoyl-1H-benzo[d]imidazol-1-yl)but-2-en-1-yl)-1H-benzo[d]imidazole-5-carboxamide] | >10,000 ng/mL |
| CCn1cc(C(=O)Nc2nc3cc(C(N)=O)cc(OCCCN(C)C(=O)CCN4C(=O)C=CC4=O)c3n2C/C=C/Cn2c(NC(=O)c3cc(C)nn3CC)nc3cc(C(N)=O)cc(OC)c32)c(C)n1 [compound 102] | >10,000 ng/mL |
| CCn1nc(C)cc1C(=O)Nc1nc2cc(S(=O)(=O)NC)ccc2n1C/C=C/Cn1c(NC(=O)c2cc(C)nn2CC)nc2cc(C(N)=O)cc(OCCCN(C)C(=O)CCN3C(=O)C=CC3=O)c21 [compound 128, (E)-7-(3-(3-(2,5-dioxo-2,5-dihydro-1H-pyrrol-1-yl)-N-methylpropanamido)propoxy)-2-(1-ethyl-3-methyl-H-pyrazole-5-carboxamido)-1-(4-(2-(1-ethyl-3-methyl-1H-pyrazole-5-carboxamido)-5-(N-methylsulfamoyl)-1H-benzo[d]imidazol-1-yl)but-2-en-1-yl)-1H-benzo[d]imidazole-5-carboxamide] | >10,000 ng/mL |
| CCn1cc(C)nc1C(=O)Nc1nc2cc(C(N)=O)cc(OCCCN(C)C(=O)CCN3C(=O)C=CC3=O)c2n1C/C=C/Cn1c(NC(=O)c2cc(C)nn2CC)nc2cc(C(N)=O)cc(OC)c21 [compound 103] | >10,000 ng/mL |
| CCc1nc(C)oc1C(=O)Nc1nc2cc(C(N)=O)cc(OCCCN(C)C(=O)CCN3C(=O)C=CC3=O)c2n1C/C=C/Cn1c(NC(=O)c2cc(C)nn2CC)nc2cc(C(N)=O)cc(OC)c21 [compound 112] | 2 ng/mL (≈ 2.11 nM) |
| CCc1nc(C)sc1C(=O)Nc1nc2cc(C(N)=O)cc(OCCCN(C)C(=O)CCN3C(=O)C=CC3=O)c2n1C/C=C/Cn1c(NC(=O)c2cc(C)nn2CC)nc2cc(C(N)=O)cc(OC)c21 [compound 111] | 13.2 ng/mL (≈ 13.7 nM) |
| CCc1cc(C(=O)Nc2nc3cc(C(N)=O)cc(OCCCN(C)C(=O)CCN4C(=O)C=CC4=O)c3n2C/C=C/Cn2c(NC(=O)c3cc(C)nn3CC)nc3cc(C(N)=O)cc(OC)c32)n(C)n1 [compound 104] | >10,000 ng/mL |
| CCn1nc(C)cc1C(=O)Nc1nc2cc(C(N)=O)cc(OC)c2n1C/C=C/Cn1c(NC(=O)c2cc(C)nn2CC)nc2cc(C(N)=O)cc(OCCCN(C)C(=O)[C@H](CC(C)C)NC(=O)CCN3C(=O)C=CC3=O)c21 [compound 121] | 3.0 ng/mL (≈ 2.84 nM) |

same assay, conditions: Homo sapiens, THP1-Dual; small molecules, 24 h; >10,000 nM = minimal activity up to 10 μM; some values average of multiple experiments; read-out: EC50, Lucia reporter signal

| SMILES | EC50 |
| --- | --- |
| CCn1nc(C)cc1C(=O)Nc1nc2cc(C(N)=O)cc(OC)c2n1C/C=C/Cn1c(NC(=O)c2cc(C)nn2CC)nc2cc(C(N)=O)cc(OCCCN(C)C(=O)CCN3C(=O)C=CC3=O)c21 [compound 12, (E)-1-(4-(5-carbamoyl-2-(1-ethyl-3-methyl-1H-pyrazole-5-carboxamido)-7-methoxy-1H-benzo[d]imidazol-1-yl)but-2-en-1-yl)-7-(3-(3-(2,5-dioxo-2,5-dihydro-1H-pyrrol-1-yl)-N-methylpropanamido)propoxy)-2-(1-ethyl-3-methyl-1H-pyrazole-5-carboxamido)-1H-benzo[d]imidazole-5-carboxamide] | 37 nM |
| COc1cc(C(N)=O)cc2nc(NC(=O)c3ccnnc3)n(C/C=C/Cn3c(NC(=O)c4cccnn4)nc4cc(C(N)=O)cc(O)c43)c12 [Compound 42] | > 10000 nM |

same assay, conditions: free drug, 24 h (48 h elsewhere in the source)

| SMILES | relative potency of free drug, Lucia reporter |
| --- | --- |
| CCn1nc(C)cc1C(=O)Nc1nc2cc(C(N)=O)cc(O)c2n1C/C=C/Cn1c(NC(=O)c2cc(C)nn2CC)nc2cc(C(N)=O)cc(OCCCNC)c21 [Compound 15b] | more potent than 12a |

same assay, conditions: small molecules, 24 h; >10,000 nM = minimal activity up to 10 μM; some values average of multiple experiments; read-out: EC50, Lucia reporter signal

| EC50 | SMILES |
| --- | --- |
| 5.8 nM | CCn1nc(C)cc1C(=O)Nc1nc2cc(C(N)=O)cc(O)c2n1C/C=C/Cn1c(NC(=O)c2cc(C)nn2CC)nc2cc(C(N)=O)cc(OCCCNC)c21 [Compound 15b] |
